Measured values published in US7772226B2, “Condensed imidazole derivatives” (Eisai R&D Management Co., Ltd., priority 2002, dated 2010).

How the values were obtained:
male C57BL/6N mice = assay: Acceptable Timing of Administration in In Vivo Test; conditions: oral; given simultaneously with vs one hour before glucose loading (2 g/kg); improvement factor for glucose tolerance compared
Procedure: Acceptable Timing of Administration in In Vivo Test
The respective tests described below were carried out in combination with the in vivo test (administration before 0.5 hour) as described in Assay Example 2:
1. A test compound is administered simultaneously with glucose loading (2 g/kg) (the test compound is suspended in an aqueous solution of 0.5% methyl cellulose; the solution is combined with an equal volume of a glucose solution; and the mixture is administered orally at a dose of 10 ml/kg);
2. A test compound is administered one hour before glucose loading (2 g/kg) (the test compound suspended in an aqueous solution of 0.5% methyl cellulose is administered orally one hour before the oral administration of the glucose solution; each is given orally at a dose of 10 ml/kg).
The improvement factor for glucose tolerance is estimated in each test.

male Wistar rats = assay: Effect of a Test Compound on the Blood Glucose Level of Fasted Male Wistar Rats; format: in vivo; conditions: oral dose of 10-30 (mg/kg), 0.5, 1 and 3 hours after administration, compared with control group treated with the medium alone
Procedure: Purpose: Effect of a Test Compound on the Blood Glucose Level of Fasted Male Wistar Rats
Animal: male Wistar rats (purchased from Charles River Japan, Inc.)
A test compound was suspended in 0.5% methyl cellulose (MC) solution and administered orally at a dose of 5 mL/kg. The control group was treated with a 0.5% MC solution. The solution was administered orally at a dose of 5 mL/kg.
Immediately before administering a test compound or 0.5% MC solution, and 0.5, 1, and 3 hours after the administration, without anesthetic the caudal vein was lightly cut with a razor blade to let the blood out. 10 μL of blood was collected and combined with 140 μL of 0.6 M perchloric acid solution. The sample was centrifuged at 3000 g at 4° C. for 10 minutes and the resultant supernatant was assayed with the Glucose CII TEST WAKO (Wako Pure Chemical Industries).

[1] = target: T1, Porcine kidney-derived DPP-IV (Sus scrofa, UniProt P22411); assay: DPPIV-inhibiting Activity Assay; format: biochemical; conditions: substrate Gly-Pro-p-nitroanilide 0.33 mM, absorbance at 405 nm
T1 construct: Porcine kidney-derived DPP-IV was dissolved in a reaction buffer; from tissue; host or cells: porcine kidney
T1 sequence (P22411 whole entry): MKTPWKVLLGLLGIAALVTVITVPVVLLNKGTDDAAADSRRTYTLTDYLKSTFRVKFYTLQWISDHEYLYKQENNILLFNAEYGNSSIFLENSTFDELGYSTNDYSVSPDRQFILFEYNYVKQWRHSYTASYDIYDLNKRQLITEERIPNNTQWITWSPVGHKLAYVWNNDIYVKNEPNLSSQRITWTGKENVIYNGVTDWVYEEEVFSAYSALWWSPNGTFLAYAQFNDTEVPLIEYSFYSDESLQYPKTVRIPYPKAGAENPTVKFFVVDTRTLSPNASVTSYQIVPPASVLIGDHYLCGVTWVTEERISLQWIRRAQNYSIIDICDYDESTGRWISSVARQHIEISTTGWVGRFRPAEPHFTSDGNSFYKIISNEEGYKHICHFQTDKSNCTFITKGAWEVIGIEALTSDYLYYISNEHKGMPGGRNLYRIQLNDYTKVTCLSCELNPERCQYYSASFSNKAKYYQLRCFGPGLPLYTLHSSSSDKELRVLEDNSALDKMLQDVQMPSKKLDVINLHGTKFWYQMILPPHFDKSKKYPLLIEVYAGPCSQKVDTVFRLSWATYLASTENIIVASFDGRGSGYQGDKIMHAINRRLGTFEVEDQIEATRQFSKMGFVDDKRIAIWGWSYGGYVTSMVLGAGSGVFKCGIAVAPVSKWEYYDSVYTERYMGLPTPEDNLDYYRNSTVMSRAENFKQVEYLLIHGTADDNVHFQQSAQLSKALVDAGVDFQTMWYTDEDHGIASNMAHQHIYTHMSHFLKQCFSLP
Procedure: DPPIV-inhibiting Activity Assay
Porcine kidney-derived DPP-IV was dissolved in a reaction buffer (50 mM Tris-HCl (pH 7.4)/0.1% BSA) at a concentration of […]. After 110 μl of this solution had been combined with 15 μl of an agent, the mixture was incubated at room temperature for 20 minutes. 25 μl of 2 mM Gly-Pro-p-nitroanilide was added (to a final concentration of 0.33 mM) to the solution to initiate the enzyme reaction. The reaction time was 20 minutes. 25 μl of 1N phosphoric acid solution was added to the reaction solution to quench the reaction.

| Compound | range of acceptable timing of administration (male C57BL/6N mice) | change in the blood glucose level (male Wistar rats) | IC50 [1] |
| --- | --- | --- | --- |
| CC#CCn1c(N2CCNCC2)nc2nc(C#N)n(C)c(=O)c21.O=C(O)C(F)(F)F [Example 82, 7-(2-Butynyl)-2-cyano-1-methyl-8-(piperazin-1-yl)-1,7-dihydropurin-6-one trifluoroacetate] | sufficiently wide ranges of acceptable timing of administration | no significant change | – |
| CC#CCn1c(N2CCNCC2)nc2cnn(C)c(=O)c21 [Example 119, 3-(2-Butynyl)-5-methyl-2-(piperazin-1-yl)-3,5-dihydroimidazo[4,5-d]pyridazin-4-one] | sufficiently wide ranges of acceptable timing of administration | no significant change | – |
| CC#CCn1c(N2CCCC(N)C2)nc2cnn(C)c(=O)c21.O=C(O)C(F)(F)F (stereo not shown) [Example 120, 2-(3-Aminopiperidin-1-yl)-3-(2-butynyl)-5-methyl-3,5-dihydroimidazo[4,5-d]pyridazin-4-one trifluoroacetate] | sufficiently wide ranges of acceptable timing of administration | no significant change | – |
| CC#CCn1c(N2CCNCC2)nc2nc(Oc3ccccc3C(N)=O)n(C)c(=O)c21 [Example 122, 2-[7-(2-Butynyl)-1-methyl-6-oxo-8-(piperazin-1-yl)-6,7-dihydro-1H-purin-2-yloxy]benzamide] | sufficiently wide ranges of acceptable timing of administration | no significant change | – |
| CC#CCn1c(N2CCNCC2)nc2nc(C#N)n(Cc3ccccc3C#N)c(=O)c21.Cl [Example 229, 7-(2-Butynyl)-1-(2-cyanobenzyl)-6-oxo-8-(piperazin-1-yl)-6,7-dihydro-1H-purine-2-carbonitrile hydrochloride] | sufficiently wide ranges of acceptable timing of administration | no significant change | – |
| CC#CCn1c(N2CCNCC2)nc2cnn(Cc3ccccc3C#N)c(=O)c21.O=C(O)C(F)(F)F [Example 267, 2-[3-(2-Butynyl)-4-oxo-2-(piperazin-1-yl)-3,4-dihydroimidazo[4,5-d]pyridazin-5-ylmethyl]benzonitrile trifluoroacetate] | sufficiently wide ranges of acceptable timing of administration | no significant change | – |
| Methyl 2-[7-(2-butynyl)-1-methyl-6-oxo-8-(piperazin-1-yl)-6,7-dihydro-1H-purin-2-yloxy]phenylacetate trifluoroacetate [Example 4] | – | – | 211 nM |
